Patent US9980943B2, “Methods of treating muscular dystrophy” (BOARD OF REGENTS OF THE NEVADA SYSTEM OF HIGHER EDUCATION, …, priority 2013, dated 2018)
Like-named read-outs stand apart in the source and are kept apart here.

Test system: α7 integrin (LacZ reporter in α7LacZ+/− myoblasts)
Assay: qHTS of the LOPAC library and MLSMR (online screen, α7LacZ+/− myoblasts)
Settings: for activation at 0.307 µM / activation at 1.53 µM / activation at 7.66 µM / activation at 38.3 µM / Emax / EC50: Mus musculus, Myoblast; for activation at 0.307 µM: read-out: Activity at 0.307 uM [%] **; for activation at 1.53 µM: read-out: Activity at 1.530 uM [%] **; for activation at 7.66 µM: read-out: Activity at 7.660 uM [%] **; for activation at 38.3 µM: read-out: Activity at 38.30uM [%] **; for EC50: read-out: Fit LogAC50 (converted)
[1] = 48 h, read-out: Fit Infinite Activity [%]

Protocol: A total of 250 α7LacZ^+/− myoblasts at passage 13 were dispensed using a multidrop (Thermo) into black low base tissue culture treated microclear aurora plates in 6 μl media containing DMEM without phenol, 5% FBS, 1× GluMax and 1× Penicillin/Streptomycin. […] Compounds were then dispensed using a Kalypsys pintool to deliver 23 nl/well compounds in DMSO (diluted into 6 μl resulting in a 1:260 dilution of compound). […] After incubation with compound, 5 μl of the media was aspirated using the Kalypsys washer/dispenser and 3 μl of the Mammalian Protein Extraction Reagent (MPER) lysis buffer (Thermo Fisher) was added. […] The plates were then incubated for 10 minutes at room temperature.
The assay was adapted for a high-throughput screen with the fully automated Kalypsys robotic system using 1536 well plates at NCGC.

| Structure (SMILES) | activation at 0.307 µM (48 h) | activation at 1.53 µM (48 h) | activation at 7.66 µM (48 h) | activation at 38.3 µM (48 h) | Emax [1] | Emax (read-out: Max Response [%]) | EC50 | Score |
| --- | --- | --- | --- | --- | --- | --- | --- | --- |
| COc1ccc(S(=O)(=O)Nc2ccc(S(=O)(=O)Nc3nccs3)cc2)cc1 [Compound 152] | -6.73% | 0% | 26.3% | 67.4% | 88.8% | 67.4% | – | – |
| O=C(NC(=S)NCCC1=CCCCC1)c1ccc(Br)o1 [Compound 205] | -39.4% | -31.7% | 12.1% | 50.2% | 57.8% | 50.2% | – | – |
| C[C@H]1CNC(=O)c2c(C(=O)Nc3ccc(CNC(=O)OC(C)(C)C)cc3)ncn21 [Compound 88] | 12.6% | 21.8% | 50.5% | 81.8% | 98.4% | 81.8% | 8.91 µM | – |
| COCc1c(C(=O)OCc2nc(=O)c3sccc3[nH]2)oc2ccccc12 [Compound 6] | -39.8% | 19.2% | 60.6% | 68.1% | 69.6% | – | 1.12 µM | – |
| CC(/C=C(\O)c1ccccc1)=N\c1ccc(Br)c(Cl)c1 [Compound 130] | 7.18% | 9.18% | 26.1% | 127% | 128% | 127% | – | – |
| O=C(O)CCn1cc(/C=C2/NC(=S)N(c3ccccc3)C2=O)c(-c2ccccc2)n1 [Compound 65] | 8.21% | 2.59% | 27.2% | 464% | 501% | 464% | 20 µM | 45 |
| CCOc1ccc2oc(C(=O)OCC(=O)NC(=O)NC)c(C)c2c1 [Compound 115] | -3.94% | 0% | 40.2% | 77.6% | 80.7% | 77.6% | 7.08 µM | – |
| NC1=Nc2cccc3cccc1c23 [Compound 117] | 0% | 5.07% | 43.6% | 82.2% | 88.8% | 82.2% | 7.94 µM | – |
| Nc1nccc(-c2ccc(-n3cnc4ccccc43)cc2)n1 [Compound 192] | 0.89% | 2.96% | 15.9% | 76.1% | 76.5% | 76.1% | – | – |
| O=C(Nc1ccc(S(=O)(=O)Nc2nccs2)cc1)c1ccccc1OC(F)F [Compound 137] | -19.2% | -19.4% | -1.67% | 61.8% | 61.7% | 61.8% | 10 µM | – |
| Cc1ccc(-c2csc(Nc3ccc(C(=O)O)cc3)[n+]2Cc2ccccc2)cc1 [Compound 126] | 5.18% | 19% | 58.1% | 102% | 125% | 102% | – | – |
| N#Cc1ccc(OCC(O)CS(=O)(=O)c2ccccc2)cc1 (centres unmarked) [Compound 195] | -7.88% | -12% | 15.3% | 89.4% | 89.6% | 89.4% | 10 µM | – |
| O=C(CSc1nnc(C2CC2)n1C1CC1)c1cccs1 [Compound 133] | -26% | -28.4% | 5.99% | 70.2% | 73.1% | 70.2% | 10 µM | – |
| O=C(O)c1cc(/N=C/c2c(O)oc3ccccc3c2=O)ccc1O [Compound 48] | -32% | -23.3% | 76.6% | 165% | 179% | – | 7.08 µM | – |
| COc1cc2c(cc1OC)C(NC(=O)C(F)(F)F)C/C2=N\O (centres unmarked) [Compound 193] | 3.74% | 2% | 17.9% | 91.5% | 92.3% | 91.5% | – | – |
| COc1ccc(S(=O)(=O)N(NC2=NS(=O)(=O)c3ccccc32)C(=O)C(C)C)cc1 [Compound 37] | -1.77% | 15.3% | 70.7% | 72.9% | 74.5% | – | 2.51 µM | – |
| CCOc1ccc2ccccc2c1C1NC(=O)N(C)C(C)=C1C(=O)OCCOC (centres unmarked) [Compound 76] | -5.81% | 5.65% | 55.1% | 97% | 106% | 97% | 6.31 µM | – |
| CCCN(C(=O)c1ccc(S(=O)(=O)N2CCCC2)cc1)C1CCS(=O)(=O)C1 (centres unmarked) [Compound 89] | -9.99% | -0.297% | 45.6% | 74.1% | 75.3% | 74.1% | 5.01 µM | – |

| Structure (SMILES) | activation at 0.307 µM (48 h) | activation at 1.53 µM (48 h) | activation at 7.66 µM (48 h) | activation at 38.3 µM (48 h) | Emax [1] | Emax (read-out: Max Response [%]) | EC50 | Score |
| --- | --- | --- | --- | --- | --- | --- | --- | --- |
| CC(C)c1ccc(NC(=O)CN2C(=O)c3ccccc3S2(=O)=O)cc1 [Compound 150] | 0% | 0.16% | 15.1% | 67.1% | 67.4% | 67.1% | 10 µM | – |
| COc1ccc(/C=C(\NC(=O)c2ccc(C)cc2)C(=O)Nc2ccc(C(=O)O)cc2)cc1 [Compound 160] | -2.5% | -3.36% | 16% | 99.8% | 101% | 99.8% | – | – |
| COc1ccccc1C(=O)NCCOc1ccc(C(C)(C)C)cc1 [Compound 168] | – | 0% | 35.8% | 77.8% | 82.9% | 77.8% | – | – |
| COC(=O)Cc1c(O)ccn(Cc2ccc3c(c2)OCO3)c1=O [Compound 80] | -4.78% | 4.56% | 65.9% | 146% | 169% | 146% | 10 µM | – |
| Cc1ccc(-c2nc(C)sc2CC(=O)OCC(=O)Nc2c(F)cccc2F)cc1 [Compound 210] | 13.8% | 9.43% | 20.3% | 113% | 113% | 113% | – | – |
| COc1ccc(N2CCCC2)c(NC(=O)c2ccc([N+](=O)[O-])o2)c1 [Compound 46] | -29.7% | 4.44% | 77.6% | 156% | 196% | – | 7.94 µM | – |
| C/N=c1\scc(-c2ccc(OC)cc2)n1/N=C(\C)c1cccnc1 [Compound 118] | -8.12% | 2.29% | 48.7% | 73.6% | 74.9% | 73.6% | 5.01 µM | – |
| CC(C)N(CCO)C(=O)CCc1nnc(CCCc2ccccc2)o1 [Compound 199] | 0% | 7.61% | 32.2% | 78.1% | 96.2% | 78.1% | – | – |
| COCc1c(C(=O)N/N=C(\C)c2ccc(OCc3ccccc3)cc2)nnn1-c1nonc1N [Compound 143] | 4.28% | 4.88% | 22.4% | 80.8% | 81.3% | 80.8% | 10 µM | – |
| COc1ccc(-c2c[nH]nc2-c2ccc(OC)cc2)cc1 [Compound 106] | -0.495% | 9.02% | 40.4% | 70.1% | 79.2% | 70.1% | – | – |
| COC(=O)C1SCC2C(=O)N(Cc3ccc(F)cc3)CC(=O)N21 (centres unmarked) [Compound 187] | -53.6% | -42.4% | -1.79% | 51.5% | 65.7% | 51.5% | – | – |
| COc1cc2c(cc1NC(=O)Cc1ccc(C)cc1)oc1ccccc12 [Compound 5] | -1.8% | 58.4% | 87.2% | 687% | 87.4% | – | 1.12 µM | – |
| COc1ccccc1CNS(=O)(=O)c1ccc(Cl)s1 [Compound 103] | -22% | -16.4% | 50.2% | 91.3% | 96.9% | 91.3% | 6.31 µM | – |
| COc1ccc(CCNC(=O)c2nn(C)c3c2CS(=O)(=O)c2ccccc2-3)cc1OC [Compound 74] | -22.8% | -9.73% | 56.7% | 84.2% | 86.2% | 84.2% | 4.47 µM | – |
| CCCn1c(-c2cc(OC)c(OC)c(OC)c2)nc2c1c(=O)[nH]c(=O)n2Cc1ccccc1 [Compound 54] | 42% | 58.6% | 120% | 213% | 262% | 213% | 12.6 µM | – |
| Cc1c(C(=O)N2CCCCC2)c(S(=O)(=O)Nc2cccc(Br)c2)c(C)n1C [Compound 155] | -32.1% | -31.8% | -9.12% | 60.5% | 60.9% | 60.5% | 10 µM | – |
| Cc1cc(C(=O)Nc2cccc3ccccc23)c(C)o1 [Compound 153] | -20.8% | -14.3% | 26.2% | 66% | 74.5% | 66% | – | – |
